In ChEMBL document CHEMBL3244274, “Antiallergic 9-oxo-11-hydroxy-5H,9H-[2]benzopyrano[4,3-g][1]benzopyrans” (J Med Chem, 1978):
Values after ≈ are worked out from the molar mass of the structure shown.

What was measured:
Rattus norvegicus [1] = experiment: Antiallergic activity in adrenalectomized Sprague-Dawley rat assessed as inhibition of egg albumin-induced passive cutaneous anaphylaxis reaction at 10 mg/kg, iv after 30 mins by Evans blue staining; format: functional; conditions: 0.5 h
Ileum [2] = experiment: Antiallergic activity in guinea pig ileum strips assessed as inhibition of serotonin-induced anaphylaxis; format: functional, tissue-based; conditions: Cavia porcellus
Ileum [3] = experiment: Antiallergic activity in guinea pig ileum strips assessed as inhibition of bradykinin-induced anaphylaxis; format: functional, tissue-based; conditions: Cavia porcellus
Stomach [4] = experiment: Antiallergic activity in rat stomach strips assessed as inhibition of PGE2-induced anaphylaxis; format: functional, tissue-based
Stomach [5] = experiment: Antiallergic activity in rat stomach strips assessed as inhibition of […]-induced anaphylaxis; format: functional, tissue-based
[6] = Antiallergic activity in guinea pig lung tissue assessed as inhibition of SRS-A production; format: functional, tissue-based, Cavia porcellus
Rattus norvegicus [7] = experiment: Antiallergic activity in iv dosed adrenalectomized Sprague-Dawley rat assessed as inhibition of egg albumin-induced passive cutaneous anaphylaxis reaction after 30 mins by Evans blue staining; format: functional; conditions: 0.5 h
Ileum [8] = experiment: Antiallergic activity in guinea pig ileum strips assessed as inhibition of histamine-induced anaphylaxis; format: functional, tissue-based; conditions: Cavia porcellus
Stomach [9] = experiment: Antiallergic activity in rat stomach strips assessed as inhibition of PGE2-induced anaphylaxis at 25 ug/ml; format: functional
Stomach [10] = experiment: Antiallergic activity in rat stomach strips assessed as inhibition of […]-induced anaphylaxis at 25 ug/ml; format: functional
Stomach [11] = experiment: Antiallergic activity in rat stomach strips assessed as inhibition of […]-induced anaphylaxis at 100 ug/ml; format: functional
[12] = Antiallergic activity in guinea pig lung tissue assessed as inhibition of SRS-A production at 1 ug/ml; format: functional; conditions: Cavia porcellus
Rattus norvegicus [13] = experiment: Antiallergic activity in adrenalectomized Sprague-Dawley rat assessed as inhibition of egg albumin-induced passive cutaneous anaphylaxis reaction at 3 mg/kg, iv after 30 mins by Evans blue staining; format: functional; conditions: 0.5 h
Rattus norvegicus [14] = experiment: Toxicity in adrenalectomized Sprague-Dawley rat at 10 mg/kg, iv; format: organism-based; parameters: dose 10 mg/kg, route intravenous; conditions: in vivo

| Structure (SMILES) | inhibition in vivo at 10 mg/kg (Rattus norvegicus [1]) [%] | EC50 (Ileum [2]) [µg/mL] | EC50 (Ileum [3]) [µg/mL] | EC50 (Stomach [4]) [µg/mL] | EC50 (Stomach [5]) [µg/mL] | EC50 [6] [µg/mL] | ED50 (Rattus norvegicus [7]) [mg/kg] | EC50 (Ileum [8]) [µg/mL] | inhibition at 25 µg/mL (Stomach [9]) [%] | inhibition at 25 µg/mL (Stomach [10]) [%] | inhibition at 100 µg/mL (Stomach [11]) [%] | inhibition at 1 µg/mL [12] [%] | inhibition in vivo at 3 mg/kg (Rattus norvegicus [13]) [%] | Activity (Rattus norvegicus [14]) |
| --- | --- | --- | --- | --- | --- | --- | --- | --- | --- | --- | --- | --- | --- | --- |
| CC1(C)Oc2cc3oc(C(=O)O)cc(=O)c3cc2-c2ccccc21.NCCO | 81 | 92 | 145 | 70 | 17 | 32 | 0.5 | 150 | – | – | – | – | – | – |
| CC1(C)Oc2cc3oc(=O)cc([O-])c3cc2-c2ccccc21.[Na+] | 67 | 10.2 | 17 | 56 | 26 | – | – | 55 | – | – | – | – | – | – |
| COc1cc2c(cc1Br)-c1cc3c([O-])cc(=O)oc3cc1OC2(C)C.[Na+] | 33 | 4.4 | 51 | 55 | 14 | 28 | – | 39 | – | – | – | – | – | – |
| CC1(C)Oc2cc3oc(=O)cc([O-])c3cc2-c2ccc(Cl)cc21.[Na+] | 0 | 10.2 | 5.3 | 45 | – | – | – | 21 | – | – | – | – | – | – |
| CC1(C)Oc2cc3oc(=O)cc(O)c3cc2-c2ccc(F)cc21 | 60 | – | – | – | – | – | – | – | – | – | – | – | – | – |
| CC1(C)Oc2cc3oc(=O)cc([O-])c3cc2-c2ccc(O)cc21.[Na+] | 61 | 15 | 84 | 40 | 47 | 13 | – | > 200 | – | – | – | – | – | – |
| COc1ccc2c(c1)C(C)(C)Oc1cc3oc(=O)cc([O-])c3cc1-2.[Na+] | 67 | 16 | 9.2 | 68 | 23 | – | 9 | 13.2 | – | – | – | – | – | – |
| CCCOc1ccc2c(c1)C(C)(C)Oc1cc3oc(=O)cc([O-])c3cc1-2.[Na+] | 0 | 4.7 | 14 | 70 | – | – | – | 7 | – | – | – | – | – | – |
| CC1(C)Oc2cc3oc(=O)cc([O-])c3cc2-c2ccc(OCCO)cc21.[Na+] | 87 | 11 | 92 | 62 | 16 | – | 0.3 | > 200 | – | – | – | – | – | – |
| Cc1c2c(cc3oc(=O)cc([O-])c13)OC(C)(C)c1ccccc1-2.[Na+] | 0 | 4.8 | 17.5 | – | – | – | – | 14.5 | – | – | – | – | – | – |
| O=C([O-])c1cc(=O)c2c(OCC(O)COc3cccc4oc(C(=O)[O-])cc(=O)c34)cccc2o1.[Na+].[Na+] [CROMOLYN SODIUM] | 80 | > 200 | > 200 | > 200 | > 200 | > 200 | 2.9 | > 200 | – | – | – | – | – | – |
| CN1CCC(=C2c3ccccc3C=Cc3ccccc32)CC1 [CYPROHEPTADINE] | 51 | 0.04 (≈ 0.139 µM) | 2 (≈ 6.96 µM) | 25 (≈ 87 µM) | 65 (≈ 226 µM) | < 1 | – | 0.04 (≈ 0.139 µM) | 54 | 33 | 74 | 62 | 30 | Toxic |
